How the values were obtained:
[1] = test system: melanoma cell lines from varying stages of progression; experiment: 3H-thymidine incorporation, melanoma lines of varying stages; type: cell-based; conditions: 24 hours
Protocol: Proliferation was measured via ^3H-thymidine incorporation.

WM35 melanoma cells = experiment: apoptosis, annexin V and propidium iodide FACS; type: cell-based, human; conditions: 72 hours, low serum concentrations
Protocol: FIG. 14A includes scatter plots. […] WM35 melanoma cells were also treated with camptothecin as a positive control for apoptosis. FIGS. 14B and 14C include images of the treated cells stained for senescence-associated beta galactosidase.

[2] = test system: NCI-60 panel of tumor cell lines; experiment: NCI-60 DTP human tumor cell line screen; type: cell-based; conditions: 48 hours
Protocol: The in vitro cancer screen was performed at the National Cancer Institute as described in detail at http://dtp.nci.nih.gov/branches/btb/ivelsp.html.
Briefly, cells were plated in 96 well plates at a concentration of 5,000-40,000 cells/well. […] Using the absorbance measurements [time zero, (Tz), control growth, (C), and test growth in the presence of drug at the five concentration levels (Ti)], the percentage growth was calculated at each of the drug concentrations levels. Percentage growth inhibition was calculated as: [(Ti−Tz)/(C−Tz)]×100 for concentrations for which Ti≧Tz [(Ti−Tz)/Tz]×100 for concentrations for which Ti<Tz where Tz is time zero, C is control growth, and Ti is test growth in the presence of drug at the five concentration levels.

H247 glioblastoma cells = experiment: AlamarBlue growth inhibition, H247; type: cell-based; conditions: H247, 72 hours
Protocol: (§1) Dose response curves were generated using the AlamarBlue® assay (Invitrogen, Carlsbad, Calif.).
(§2) When inhibition was assessed using the AlamarBlue® assay (Invitrogen, Carlsbad, Calif.), cells were initially seeded at 500 cells per well in a 96-well plate. AlamarBlue® is a non-toxic reagent that measures cellular metabolic activity. Its main ingredient is resazurin, a non-fluorescent indicator dye that is reduced to bright red-fluorescent resorufin in metabolically active cells. AlamarBlue® was added to growth medium at 1/10 of the total volume (e.g., 20 μl in 200 μl total volume). […] Fluorescence reading was taken from the same plate every day for 5 days to ensure that the saturation point was not reached. Fluorescence intensity is proportional to the number of live cells in the plate.

Mel-1 melanoma cells = experiment: combination with chemotherapy, total cell number; type: cell-based; conditions: 2 μM C646, 24 hours before chemotherapy agent
Protocol: The cells were grown for 24 hours in medium. The cells were given fresh medium and either 1 μM of cisplatin or 200 μM of temozolamide was added. Total cell number was counted on Day 0, at 24 hours, and 48 hours after addition of cisplatin or temozolamide.
After 24 hours, the treated and mock-treated cells were given fresh medium, and the cells were treated with cisplatin or temozolamide for 48 hours.

[3] = test system: global histone H3 acetylation in WM983A cells; experiment: histone H3 acetylation Western blot in WM983A; type: cell-based, human; conditions: 6 hours, increasing doses
Protocol: Cells were treated with each compound for 24 hours, and proliferation was measured via ^3H-thymidine incorporation. […] Nuclear lysates were subjected to Western blot analysis for acetylated H3 (Upstate 06-599). Total H3 (Abeam ab1791) was blotted as a loading control.

[4] = molecular target: PCAF (p300/CBP-associated factor) (Homo sapiens, UniProt Q92831); experiment: PCAF coupled spectrophotometric assay; type: biochemical; conditions: 10 μM compound; read-out: Percent inhibition of acetyltransferase, PCAF
PCAF (p300/CBP-associated factor), sequence (Q92831 493-658 limits assumed, species assumed): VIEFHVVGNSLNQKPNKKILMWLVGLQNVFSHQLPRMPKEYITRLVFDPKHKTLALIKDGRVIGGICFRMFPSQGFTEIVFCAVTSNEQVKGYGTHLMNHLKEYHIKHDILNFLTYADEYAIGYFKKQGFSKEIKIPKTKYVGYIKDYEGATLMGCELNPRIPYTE

Rtt109/Vps75 complex = molecular target: T1, Rtt109/Vps75 complex (Saccharomyces cerevisiae, UniProt Q07794); experiment: Rtt109 direct radioactive HAT assay; type: biochemical; conditions: 10 μM compound; read-out: Percent inhibition of acetyltransferase, Rtt109
T1 construct: made in house
T1 sequence (Q07794 whole entry): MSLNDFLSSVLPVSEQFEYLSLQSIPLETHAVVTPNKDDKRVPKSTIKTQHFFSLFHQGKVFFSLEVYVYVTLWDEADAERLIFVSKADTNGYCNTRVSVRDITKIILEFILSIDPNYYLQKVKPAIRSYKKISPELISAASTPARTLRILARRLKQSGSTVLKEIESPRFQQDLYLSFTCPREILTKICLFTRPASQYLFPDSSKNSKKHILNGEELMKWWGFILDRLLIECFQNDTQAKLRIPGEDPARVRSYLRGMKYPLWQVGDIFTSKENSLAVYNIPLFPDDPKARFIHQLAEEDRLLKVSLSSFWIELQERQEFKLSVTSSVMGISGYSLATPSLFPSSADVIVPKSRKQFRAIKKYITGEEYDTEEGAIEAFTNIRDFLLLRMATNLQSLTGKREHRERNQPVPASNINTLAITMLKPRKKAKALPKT
T1 sequence (P53853 whole entry partner): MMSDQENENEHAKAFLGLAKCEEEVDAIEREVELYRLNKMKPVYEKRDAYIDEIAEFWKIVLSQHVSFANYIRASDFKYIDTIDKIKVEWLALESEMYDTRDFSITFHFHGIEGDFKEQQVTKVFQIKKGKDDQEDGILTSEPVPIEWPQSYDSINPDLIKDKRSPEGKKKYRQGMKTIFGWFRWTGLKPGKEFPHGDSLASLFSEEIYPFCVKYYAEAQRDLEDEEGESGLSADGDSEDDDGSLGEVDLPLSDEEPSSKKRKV
Protocol: PCAF reactions were performed in 100 mM HEPES, pH 7.9, and contained 200 μM TPP, 5 mM MgCl2, 1 mM DTT, 50 mM NaCl, 0.05 mg/mL BSA, 200 μM NAD, 2.4 mM α-KG, 30 μM acetyl-CoA, 0.037 units α-KGDH, 3.3% DMSO, and 10 μM inhibitor. Reactions took place at 30° C. Reactions were initiated by addition of 10 nM PCAF and were followed at 340 nm over the linear portion of the curve below 10% turnover. AANAT reactions were performed in 100 mM NH4 OAc, pH 6.8, and contained 200 μM TPP, 5 mM MgCl2, 1 mM DTT, 50 mM NaCl, 0.05 mg/mL BSA, 200 μM NAD, 2.4 mM α-KG, 200 μM AcCoA, 0.1 units α-KGDH, 3.3% DMSO, and 10 μM inhibitor. Reactions took place at 25° C. Reactions were initiated with addition of 65 nM AANAT, and followed at 340 nm, as above. Percent inhibition values were compared to those with p300, which were repeated using the protocol given above. […]
HAT assays with yeast GCN5, SAS complex, MOZ, and Rtt109/Vps75 complex used the direct radioactive assay described above. […] The amount of enzyme used in each assay was estimated by comparing Coomassie Blue staining of samples with bovine serum albumin standards, analyzed by SDS-PAGE. […] The rate of ^14C-incorporation into histone H3 was quantified by autoradiography. […]

U87 glioblastoma cells = experiment: AlamarBlue growth inhibition, U87; type: cell-based; conditions: U87, 72 hours
Protocol: as §1, §2

[5] = molecular target: AANAT (arylalkylamine N-acetyltransferase) (Ovis aries, UniProt Q29495); experiment: AANAT coupled spectrophotometric assay; type: biochemical; conditions: 10 μM compound; read-out: Percent inhibition of acetyltransferase, AANAT
AANAT (arylalkylamine N-acetyltransferase), sequence (Q29495 whole entry): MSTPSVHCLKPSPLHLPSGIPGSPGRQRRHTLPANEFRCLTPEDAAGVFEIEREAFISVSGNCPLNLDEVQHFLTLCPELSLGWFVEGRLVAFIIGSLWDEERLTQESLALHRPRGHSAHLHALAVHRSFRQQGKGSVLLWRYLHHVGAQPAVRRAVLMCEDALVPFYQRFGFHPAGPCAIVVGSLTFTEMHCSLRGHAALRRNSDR

For CC1=NN(c2ccc(C(=O)O)cc2)C(=O)C1=Cc1ccc(-c2cc(C)c(C)cc2[N+](=O)[O-])o1 [Compound C646, 4-(4,5-dihydro-3-methyl-4-((5-(4,5-dimethyl-2-nitrophenyl)furan-2-yl)methylene)-5-oxopyrazol-1-yl)benzoic acid], the 3H-thymidine incorporation [1] was “reduced ^3H-thymidine incorporation”, the apoptosis (WM35 melanoma cells) was “induced WM35 cell apoptosis” and the “growth inhibition / cell death” value [2] was “significant growth inhibition and/or tumor cell death”. For the same molecule, the IC50 (H247 glioblastoma cells) was 14.4 µM, the sensitization to chemotherapy (Mel-1 melanoma cells) was “sensitized the melanoma cells to temozolamide” and the “global histone H3 acetylation” value [3] was “dose-dependent reduction”. For the same molecule, the inhibition at 10 µM [4] was under 10%, the inhibition at 10 µM (Rtt109/Vps75 complex) was under 10% and the IC50 (U87 glioblastoma cells) was 15.1 µM. It also gave an inhibition at 10 µM [5] of under 10%.

Source: patent publication US9005670B2, “Use of histone acetyltransferase inhibitors as novel anti-cancer therapies” (The Johns Hopkins University, priority 2010, dated 2015)
